Assay: Solubility of the active substance in solvents and vehicles
Assay type: physicochemical
Description: Topically administered active substances are mainly used to treat the redness, swelling, itching and discomfort of psoriasis, atopic dermatitis and other pathologies of the skin. […] Glucocorticosteroids, steroids, calcineurin inhibitors, vitamin D analoques, retinoids, immunosuppressants, antimycotics, antiinfectives, estrogens, androgens, fumaric acid esters are typical drug classes for topical administration with such low water solubility. Other examples for such poorly soluble compounds are provided e.g. in WO 03/082827 or WO 2006/050998. One example is the non-steroidal active substance having the chemical name (R)-1,1,1-Trifluoro-4-(5-fluoro-2,3-dihydrobenzofuran-7-yl)-4-methyl-2-{[(2-methyl-5-quinolyl)amino]methyl}pentan-2-ol, the empirical formula of which is C25H26F4N2O2, having a molecular weight of 462.5. This is the compound according to example 1 of WO 2006/050998 (hereinafter Ex1/998).

solubility in ethyl alcohol (ethyl alcohol): moderately soluble
solubility in hexane (hexane): only slightly soluble
solubility in standard cream and ointment vehicles (vehicles for topical administration, such as petrolatum and mineral oils): very poor solubility
solubility in water (water): insoluble
Compound: Cc1ccc2c(NC[C@](O)(CC(C)(C)c3cc(F)cc4c3OCC4)C(F)(F)F)cccc2n1 [Ex1/998, (R)-1,1,1-Trifluoro-4-(5-fluoro-2,3-dihydrobenzofuran-7-yl)-4-methyl-2-{[(2-methyl-5-quinolyl)amino]methyl}pentan-2-ol]

Reference: patent US8282909B2, “Pharmaceutical composition for topical application of poorly soluble compounds” (Intendis GmbH, priority 2007, dated 2012)
